In the assay the target is T1, AKAP1 (Mus musculus, UniProt O08715).
T1 construct: from tissue; host or cells: mouse brown adipose tissue (BAT) lysate; also mouse brown adipocyte extracts
T1 sequence (O08715 30-857): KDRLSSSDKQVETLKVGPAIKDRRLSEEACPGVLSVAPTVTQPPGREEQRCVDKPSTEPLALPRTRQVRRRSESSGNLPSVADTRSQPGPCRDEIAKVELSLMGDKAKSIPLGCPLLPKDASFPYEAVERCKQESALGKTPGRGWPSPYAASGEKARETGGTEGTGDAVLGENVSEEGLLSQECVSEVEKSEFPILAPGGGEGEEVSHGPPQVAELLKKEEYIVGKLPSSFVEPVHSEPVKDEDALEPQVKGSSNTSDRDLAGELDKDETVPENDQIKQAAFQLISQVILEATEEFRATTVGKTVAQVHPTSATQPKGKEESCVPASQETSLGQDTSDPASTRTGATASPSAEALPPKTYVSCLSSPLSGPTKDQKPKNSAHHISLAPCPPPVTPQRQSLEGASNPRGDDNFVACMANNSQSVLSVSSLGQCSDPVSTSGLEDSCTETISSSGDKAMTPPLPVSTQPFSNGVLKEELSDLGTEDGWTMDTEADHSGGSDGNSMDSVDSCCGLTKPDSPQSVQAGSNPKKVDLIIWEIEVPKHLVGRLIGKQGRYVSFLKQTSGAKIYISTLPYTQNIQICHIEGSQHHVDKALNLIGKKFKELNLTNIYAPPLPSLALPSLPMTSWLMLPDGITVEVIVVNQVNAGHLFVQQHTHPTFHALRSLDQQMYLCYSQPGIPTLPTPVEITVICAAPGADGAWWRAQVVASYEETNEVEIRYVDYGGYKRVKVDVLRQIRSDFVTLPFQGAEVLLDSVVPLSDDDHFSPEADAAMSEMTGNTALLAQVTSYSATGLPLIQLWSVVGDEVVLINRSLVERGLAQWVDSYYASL
As to the kind of experiment: Drug Affinity Responsive Target Stability (DARTS) in BAT or brown adipocyte extracts, AKAP1. Format: binding. The following applies: 1 h; for effect on AKAP1 (pronase susceptibility): mouse brown adipocyte extracts, 20 μM (CL316,243 20 nM). How it is done: […] assays were performed according to known methods. Briefly, BAT or cells within a 10 cm dish were lysed with 600 μl M-PER buffer containing protease and phosphatase inhibitors. Debris was pelleted by centrifugation at 18,000 g for 10 min at 4° C., and the lysates were harvested and supplemented with TNC buffer (50 mM Tris-HCl, 50 mM NaCl, 10 mM CaCl2). The lysates were split into two tubes and treated with either vehicle or 20 μM Z160 for 1 h at room temperature. For experiment with BAT, 100 μg of lysate was incubated with different Z160 concentrations. Different concentrations of pronase (from 1:100 to 1:10,000 dilution from a 1.25 mg/ml pronase stock) were incubated with the samples for 30 min at room temperature and the reaction was stopped with SDS loading buffer followed immediately by heating at 70° C. for 10 min. Protein lysates were separated by SDS-PAGE and transferred to a nitrocellulose membrane. After blocking in 5% milk, 0.1% Tween-20 in Tris-buffered saline (TBS), primary antibody was incubated overnight at 4° C. in 5% bovine serum albumin and 0.1% Tween-20 in TBS. Primary antibodies against AKAP1 (5203, Cell Signaling), AKAP13 (39715, One World Lab), GAPDH (GTX100118, Genetex), OPA1 (39557, One World Lab), PKA C-α (4782, Cell Signaling), PKA RII-β (ab75993, Abcam), were used at 1:2000. A goat anti-rabbit secondary antibody (sc-2030, Santa Cruz Biotechnology, Inc) was used at a 1:10,000 dilution for 1 h at room temperature in 5% milk and 0.1% Tween-20 in TBS.
The PKA tetramer consists of two catalytic and two regulatory subunits. In the mouse, these are catalytic subunits C-α and C-β, and regulatory subunits RI and RII, each with α and β isoforms (RI-α, RI-β, RII-α, RII-β). PKA is also bound to a family of anchoring proteins, A-kinase anchoring proteins (AKAPs), which allow the compartmentalization of cAMP signaling. To investigate whether Z160 binds PKA complex proteins, two techniques were applied both of which rely on ligand-induced alterations in protein stability: Cellular Thermal Shift Assay (CETSA) and Drug Affinity Responsive Target Stability (DARTS). CETSA is based on the principle that ligand binding will change the temperature at which a protein starts to unfold and aggregate, while DARTS relies on the protection of a protein from proteolysis upon specific binding to a small molecule.
To provide further evidence for an interaction between Z160 and AKAP1, DARTS assays were employed. Lysates from brown fat were treated with different Z160 concentrations for 1 h followed by pronase digestion and immunoblotting. […] The effect of Z160 on AKAP1 was confirmed using mouse brown adipocyte extracts (FIG. 15A).

As for `O=C(CSc1nc2ccccc2c(=O)[nH]1)Nc1ccc2c(c1)OCCO2` [AST070, N-(2,3-dihydro-1,4-benzodioxin-6-yl)-2-[(4-oxo-3,4-dihydroquinazolin-2-yl)sulfanyl]acetamide], the “effect on AKAP1 (pronase susceptibility)” value was “effect of AST070 or Z160 on AKAP1”.
Take `COc1ccc(NC(=O)CSc2nc3ccccc3c(=O)[nH]2)c(OC)c1` [Z160]: the “effect on AKAP1 (pronase susceptibility)” value is reported as “confirmed”. Also, the “pronase susceptibility of AKAP1” value (brown fat lysates, pronase 1:4000) is “altered pronase susceptibility”.

Source of the values: patent US12661355B2, “Compounds and methods for inducing UCP1 expression” (The Regents of the University of California, priority 2020, dated 2026).
